# According to PMC6128713 (Saudi Pharmaceutical Journal : SPJ, 2018):
# Where two headings read alike, the source gives them in different places.
# Columns and labels:
# [1] = system: glutamate-induced 45Ca2+ uptake into synaptosomes of rat brain cortex; test: Effect on glutamate-induced 45Ca2+ uptake into synaptosomes of rat brain cortex; assay type: biochemical, Wistar rats; settings: for Percentage 45Ca2+ of Control (Control – 100%): 200 μM glutamate, 5 min, 37 °C
# [2] = assay type: physicochemical
structure (smiles),measurement,setting,value
"CN1CCc2c(c3cc(F)ccc3n2CCc2n[nH]c(=S)n2C)C1 [Compound IV, 5-[2-(8-Fluoro-2-methyl-1,2,3,4-tetrahydropyrido[4,3-b]indol-5-yl)ethyl]-4-methyl-2,4-dihydro[1,2,4]triazole-3-thione]",Percentage 45Ca2+ of Control (Control – 100%),[1]; compound 0.01 μM,102.0 ± 9.8%
same,Percentage 45Ca2+ of Control (Control – 100%),[1]; compound 0.1 μM,78.7 ± 10.3%
same,Percentage 45Ca2+ of Control (Control – 100%),[1]; compound 0.5 μM,78.7 ± 8.0%
same,Percentage 45Ca2+ of Control (Control – 100%),[1]; compound 1 μM,83.2 ± 10.9%
same,Percentage 45Ca2+ of Control (Control – 100%),[1]; compound 5 μM,94.7 ± 8.5%
same,Percentage 45Ca2+ of Control (Control – 100%),[1]; compound 10 μM,93.4 ± 6.9%
same,Percentage 45Ca2+ of Control (Control – 100%),[1]; compound 50 μM,96.9 ± 6.0%
same,Percentage 45Ca2+ of Control (Control – 100%),[1]; compound 100 μM,87.1 ± 11.5%
same,inhibition of glutamate-induced calcium ion uptake,[1]; concentration of 1 μM,~17%
same,"effect on glutamate-induced calcium ion uptake, in words",[1]; concentration of 0.1–1 μM,can act as an inhibitor
same,"effect on glutamate-induced calcium ion uptake, in words",[1]; concentration of 5–100 μM,had no effect
same,"overall inhibiting activity on calcium ion uptake, in words",[1]; whole concentration range 0.01–100 μM,weak inhibitors of calcium ion uptake
same,mole fraction solubility (x),"[2]; 1-octanol, 293.15 K",2.51 x · 10^4
same,"A, parameter of the correlation equation lnx=A-B/T","[2]; 1-octanol, 293.15–313.15 K",3.65 ± 0.15
same,"B, parameter of the correlation equation lnx=A-B/T","[2]; 1-octanol, 293.15–313.15 K",3501 ± 46
same,mole fraction solubility (x),"[2]; 1-octanol, 298.15 K",3.01 x · 10^4
same,"ΔGsol0, standard molar dissolution Gibbs energy","[2]; 1-octanol, 298.15 K",4.8 kcal/mol
same,"ΔHsol0, standard molar dissolution enthalpy","[2]; 1-octanol, 298.15 K",6.96 kcal/mol
same,"ΔSsol0, standard molar dissolution entropy","[2]; 1-octanol, 298.15 K",30.2 J/mol⋅K
same,mole fraction solubility (x),"[2]; 1-octanol, 303.15 K",3.68 x · 10^4
same,mole fraction solubility (x),"[2]; 1-octanol, 308.15 K",4.39 x · 10^4
same,mole fraction solubility (x),"[2]; 1-octanol, 313.15 K",5.30 x · 10^4
same,mole fraction solubility (x),"[2]; Buffer pH 7.4, 293.15 K",8.34 x · 10^6
same,"A, parameter of the correlation equation lnx=A-B/T","[2]; Buffer pH 7.4, 293.15–313.15 K",−2.96 ± 0.09
same,"B, parameter of the correlation equation lnx=A-B/T","[2]; Buffer pH 7.4, 293.15–313.15 K",2558 ± 27
same,mole fraction solubility (x),"[2]; Buffer pH 7.4, 298.15 K",9.60 x · 10^6
same,"ΔGsol0, standard molar dissolution Gibbs energy","[2]; Buffer pH 7.4, 298.15 K",6.84 kcal/mol
same,"ΔHsol0, standard molar dissolution enthalpy","[2]; Buffer pH 7.4, 298.15 K",5.09 kcal/mol
same,"ΔSsol0, standard molar dissolution entropy","[2]; Buffer pH 7.4, 298.15 K",-24.6 J/mol⋅K
same,mole fraction solubility (x),"[2]; Buffer pH 7.4, 303.15 K",11.11 x · 10^6
same,mole fraction solubility (x),"[2]; Buffer pH 7.4, 308.15 K",12.66 x · 10^6
same,mole fraction solubility (x),"[2]; Buffer pH 7.4, 313.15 K",14.60 x · 10^6
same,mole fraction solubility (x),"[2]; Hexane, 293.15 K",3.85 x · 10^4
same,"A, parameter of the correlation equation lnx=A-B/T","[2]; Hexane, 293.15–313.15 K",1.09 ± 0.1
same,"B, parameter of the correlation equation lnx=A-B/T","[2]; Hexane, 293.15–313.15 K",2624 ± 30
same,mole fraction solubility (x),"[2]; Hexane, 298.15 K",4.47 x · 10^4
same,"ΔGsol0, standard molar dissolution Gibbs energy","[2]; Hexane, 298.15 K",4.57 kcal/mol
same,"ΔHsol0, standard molar dissolution enthalpy","[2]; Hexane, 298.15 K",5.21 kcal/mol
same,"ΔSsol0, standard molar dissolution entropy","[2]; Hexane, 298.15 K",9.1 J/mol⋅K
same,mole fraction solubility (x),"[2]; Hexane, 303.15 K",5.11 x · 10^4
same,mole fraction solubility (x),"[2]; Hexane, 308.15 K",5.96 x · 10^4
same,mole fraction solubility (x),"[2]; Hexane, 313.15 K",6.81 x · 10^4
"Cc1ccc2c(c1)c1c(n2CCc2ccc(C)nc2)CCN(C)C1 [Dimebon, reference compound]",Percentage 45Ca2+ of Control (Control – 100%),[1]; compound 0.1 μM,120.5 ± 3.3%
same,Percentage 45Ca2+ of Control (Control – 100%),[1]; compound 0.5 μM,64.4 ± 12.4%
same,Percentage 45Ca2+ of Control (Control – 100%),[1]; compound 1 μM,61.3 ± 8.1%
same,Percentage 45Ca2+ of Control (Control – 100%),[1]; compound 5 μM,83.2 ± 4.1%
same,Percentage 45Ca2+ of Control (Control – 100%),[1]; compound 10 μM,89.3 ± 1.2%
same,Percentage 45Ca2+ of Control (Control – 100%),[1]; compound 50 μM,98.7 ± 8.8%
same,Percentage 45Ca2+ of Control (Control – 100%),[1]; compound 100 μM,132.0 ± 2.9%
